The values below come from patent publication US20230295166A1, “ATR INHIBITORS AND USES THEREOF” (ANTENGENE DISCOVERY LIMITED, priority 2020, published 2023).

This test has as its system LoVo (CCL-229) cells. Nature of the test: Tumor cell anti-proliferation assay (CTG assay). The format is cell-based. Conditions: LoVo human colorectal cancer cells, 96 h, CellTiter-Glo. The procedure:
Assay 2: Tumor Cell Anti-proliferation Assay (CTG Assay)
Human colorectal cancer cells HT-29 (HTB-38) and LoVo (CCL-229) were selected for the CTG assay, the two cell lines were originally obtained from the American Type Culture Collection (ATCC). FBS and appropriate additives were added into base medium to prepare complete medium, then the cell layer was briefly rinsed with 0.25% (w/v) Trypsin-0.038% (w/v) EDTA solution to remove all traces of serum that contains trypsin inhibitor. After that, appropriate volume of Trypsin-EDTA solution was added to flask and cells under an inverted microscope were observed until cell layer was dispersed. At last, appropriate volume of complete growth medium was added and cells were aspirated by gently pipetting. Numbers were collected and counted with Vi-cell XR and cell density was adjusted, cells were seeded into 96-well opaque-walled clear bottom tissue-culture treated plates in the CO2 incubator for 20-24 hours. All the test compounds were at 10 mM in DMSO. Compounds were then added to the cell media in 3-fold serial dilutions, the final DMSO concentration was 0.5%. Plates were incubated for 96 h at 5% CO2, 37° C. Before the measurement, the appropriate volume of CellTiter-Glo Buffer was transferred into the amber bottle containing CellTiter-Glo substrate to reconstitute the lyophilized enzyme/substrate mixture, mixed gently, thereby forming the CellTiter-Glo Reagent (Promega Cat. No. G7573). The plate and its contents were equilibrated to room temperature for approximately 30 minutes, then 100 μL of CellTiter-Glo Reagent was added to the assay plate, the contents were mixed for 2 minutes on an orbital shaker to induce cell lysis, incubated at room temperature for 10 minutes to stabilize luminescent signal. At last the clear bottom was pasted with white back seal and luminescence was recorded with Enspire. IC50 and GI50 values were calculated with XLFit curve fitting software using 4 Parameter Logistic Model Y=Bottom+(Top−Bottom)/(1+(IC50/X)^HillSlope).
(ATP-based viability assays read luminescence as a measure of living cells.)

Turning to `Cc1cc(-c2nsc3c(P(C)(C)=O)cc(N4CCOC[C@H]4C)nc23)n(C2CCCCO2)n1` (stereo partly drawn) [Example 108, dimethyl(3-(3-methyl-1-(tetrahydro-2H-pyran-2-yl)-1H-pyrazol-5-yl)-5-((R)-3-methylmorpholino)isothiazolo[4,5-b]pyridin-7-yl)phosphine oxide], the IC50 (usually the concentration at which inhibition is half-maximal) was 35 nM. To `Cc1cc(-c2nsc3c(C4(S(C)(=N)=O)CC4)cc(N4CCOC[C@H]4C)nc23)[nH]n1` (stereo partly drawn) [Example 94, imino(methyl)(1-(3-(3-methyl-1H-pyrazol-5-yl)-5-((R)-3-methylmorpholino)isothiazolo[4,5-b]pyridin-7-yl)cyclopropyl)-16-sulfanone] belongs 12 nM; to `C[C@@H]1COCCN1c1cc(C(C)(C)S(C)(=O)=O)c2cnc(-c3ccn[nH]3)n2n1` [Example 41, (3R)-4-[4-(2-methanesulfonylpropan-2-yl)-7-(1H-pyrazol-5-yl)imidazo[1,5-b]pyridazin-2-yl]-3-methylmorpholine], 86.6 nM; to `Cc1cc(-c2nsc3c(-c4cnnn4C)cc(N4CCOC[C@H]4C)nc23)[nH]n1` [Example 68, (R)-3-methyl-4-(7-(1-methyl-1H-1,2,3-triazol-5-yl)-3-(3-methyl-1H-pyrazol-5-yl)isothiazolo[4,5-b]pyridin-5-yl)morpholine], 16 nM. In turn, `Cc1cc(-c2nsc3c(N4CCCCS4(=O)=O)cc(N4CCOC[C@H]4C)nc23)[nH]n1` [Example 82, 2-[3-(3-methyl-1H-pyrazol-5-yl)-5-[(3R)-3-methylmorpholin-4-yl]-[1,2]thiazolo[4,5-b]pyridin-7-yl]-1λ^6,2-thiazinane-1,1-dione] gave an IC50 of 20 nM.

`C[C@@H]1COCCN1c1cc(-c2ccnn2C)n2ccc(-c3ccn[nH]3)c2n1` [Example 28, (R)-3-methyl-4-(4-(1-methyl-1H-pyrazol-5-yl)-8-(1H-pyrazol-5-yl)pyrrolo[1,2-a]pyrimidin-2-yl)morpholine] displayed an IC50 of 471 nM. `Cc1cc(-c2ncc3c(-c4c(C)nnn4C)cc(N4CCOC[C@H]4C)nn23)[nH]n1` [Example 35, (3R)-4-(4-(1,4-dimethyl-1H-1,2,3-triazol-5-yl)-7-(3-methyl-1H-pyrazol-5-yl)imidazo[1,5-b]pyridazin-2-yl)-3-methylmorpholine] registered an IC50 of 129 nM.

With `C[C@@H]1COCCN1c1cc(-c2ccnn2C)c2c(Cl)nc(-c3ccn[nH]3)n2n1` [Example 61, (3R)-4-[5-chloro-4-(1-methyl-1H-pyrazol-5-yl)-7-(1H-pyrazol-5-yl)imidazo[1,5-b]pyridazin-2-yl]-3-methylmorpholine], the IC50 worked out at 26.5 nM. To `Cc1cc(-c2nsc3c(C(C)(C)O)cc(N4CCOC[C@H]4C)nc23)[nH]n1` [Example 67, (R)-2-(3-(3-methyl-1H-pyrazol-5-yl)-5-(3-methylmorpholino)isothiazolo[4,5-b]pyridin-7-yl)propan-2-ol] belongs 5 nM; to `C[C@@H]1COCCN1c1cc(-c2cccnc2C(F)(F)F)c2snc(-c3ccn[nH]3)c2n1` [Example 101, (3R)-3-methyl-4-[3-(1H-pyrazol-5-yl)-7-[2-(trifluoromethyl)pyridin-3-yl]-[1,2]thiazolo[4,5-b]pyridin-5-yl]morpholine], 15.5 nM. Turning to `C[C@@H]1COCCN1c1cc(C2(C(N)=O)CCCC2)c2snc(-c3ccn[nH]3)c2n1` [Example 90, 1-{5-[(3R)-3-methylmorpholin-4-yl]-3-(1H-pyrazol-5-yl)-[1,2]thiazolo[4,5-b]pyridin-7-yl}cyclopentane-1-carboxamide], half-maximal inhibition (IC50) required 5 nM. Molecule `CCn1nncc1-c1cc(N2CCOC[C@H]2C)nc2c(-c3cc(C)n[nH]3)nsc12` [Example 107, (3R)-4-[7-(1-ethyl-1H-1,2,3-triazol-5-yl)-3-(3-methyl-1H-pyrazol-5-yl)-[1,2]thiazolo[4,5-b]pyridin-5-yl]-3-methylmorpholine] registered an IC50 of 15 nM. For `Cc1nnn(C)c1-c1cc(N2CCOC[C@H]2C)nc2c(-c3ccn[nH]3)nsc12` [Example 38, (R)-4-(7-(1,4-dimethyl-1H-1,2,3-triazol-5-yl)-3-(1H-pyrazol-5-yl)isothiazolo[4,5-b]pyridin-5-yl)-3-methylmorpholine], it took 40.4 nM to reach half-maximal inhibition (IC50).

Turning to `Cc1nc(-c2ccn[nH]2)n2nc(N3CCOC[C@H]3C)cc(-c3ccnn3C)c12` [Example 36, (R)-3-methyl-4-(5-methyl-4-(1-methyl-1H-pyrazol-5-yl)-7-(1H-pyrazol-5-yl)imidazo[1,5-b]pyridazin-2-yl)morpholine], the IC50 is 17.8 nM. In turn, `Cc1cc(-c2nsc3c(C(C)(C)C#N)cc(N4CCOC[C@H]4C)nc23)[nH]n1` [Example 54, (R)-2-methyl-2-(3-(3-methyl-1H-pyrazol-5-yl)-5-(3-methylmorpholino)isothiazolo[4,5-b]pyridin-7-yl)propanenitrile] displayed an IC50 of 66.7 nM. For `Cc1cc(-c2ncc3c(-c4ccnn4C)cc(N4CC5CCC(C4)O5)nn23)[nH]n1` [Example 79, 3-[4-(1-methyl-1H-pyrazol-5-yl)-7-(3-methyl-1H-pyrazol-5-yl)imidazo[1,5-b]pyridazin-2-yl]-8-oxa-3-azabicyclo[3.2.1]octane], the midpoint of inhibition, the IC50, lay at 246 nM. In the case of `Cc1cc(-c2nc(C)c3c(-c4ccnn4C)cc(N4CCOC[C@H]4C)nn23)[nH]n1` [Example 47, (R)-3-methyl-4-(5-methyl-4-(1-methyl-1H-pyrazol-5-yl)-7-(3-methyl-1H-pyrazol-5-yl)imidazo[1,5-b]pyridazin-2-yl)morpholine], it took 17.1 nM to reach half-maximal inhibition (IC50).

Regarding `C[C@@H]1COCCN1c1cc(-c2cnnn2C)c2snc(-c3ccn[nH]3)c2n1` [Example 69, (R)-3-methyl-4-(7-(1-methyl-1H-1,2,3-triazol-5-yl)-3-(1H-pyrazol-5-yl)isothiazolo[4,5-b]pyridin-5-yl)morpholine], it took 15 nM to reach half-maximal inhibition (IC50). `Cc1noc(C)c1-c1cc(N2CCOC[C@H]2C)nc2c(-c3ccn[nH]3)nsc12` [Example 72, (R)-4-(7-(3,5-dimethylisoxazol-4-yl)-3-(1H-pyrazol-5-yl)isothiazolo[4,5-b]pyridin-5-yl)-3-methylmorpholine] returned an IC50 of 101 nM. Consider `Cc1cc(-c2nsc3c(-c4c(C)cnn4C)cc(N4CCOC[C@H]4C)nc23)[nH]n1` [Example 71, (R)-4-(7-(1,4-dimethyl-1H-pyrazol-5-yl)-3-(3-methyl-1H-pyrazol-5-yl)isothiazolo[4,5-b]pyridin-5-yl)-3-methylmorpholine], for which the IC50 was determined as 23 nM. Turning to `C[C@@H]1COCCN1c1cc(C2(S(C)(=O)=O)CC2)c2snc(-c3ccn[nH]3)c2n1` [Example 49, (R)-3-methyl-4-(7-(1-(methylsulfonyl)cyclopropyl)-3-(1H-pyrazol-5-yl)isothiazolo[4,5-b]pyridin-5-yl)morpholine], the IC50 is 16.1 nM. In turn, `Cc1cc(-c2nsc3c(C4(O)CCCC4)cc(N4CCOC[C@H]4C)nc23)[nH]n1` [Example 106, (R)-1-(3-(3-methyl-1H-pyrazol-5-yl)-5-(3-methylmorpholino)isothiazolo[4,5-b]pyridin-7-yl)cyclopentan-1-ol] yielded a 50% inhibitory concentration (IC50) of 46 nM. Molecule `Cc1cc(-c2nsc3c(C4(CO)CCOCC4)cc(N4CCOC[C@H]4C)nc23)[nH]n1` [Example 105, (R)-(4-(3-(3-methyl-1H-pyrazol-5-yl)-5-(3-methylmorpholino)isothiazolo[4,5-b]pyridin-7-yl)tetrahydro-2H-pyran-4-yl)methanol] showed a half-inhibitory concentration (IC50) of 9 nM. `Cc1cc(-c2nsc3c(-c4ccnn4C)cc(N4CCOC[C@H]4C)nc23)[nH]n1` [Example 37, (R)-3-methyl-4-(7-(1-methyl-1H-pyrazol-5-yl)-3-(3-methyl-1H-pyrazol-5-yl)isothiazolo[4,5-b]pyridin-5-yl)morpholine] registered a 50% inhibitory concentration (IC50) of 36.6 nM. Molecule `Cc1cc(-c2nsc3c(-c4ncnn4C)cc(N4CCOC[C@H]4C)nc23)[nH]n1` [Example 102, (R)-3-methyl-4-(7-(1-methyl-1H-1,2,4-triazol-5-yl)-3-(3-methyl-1H-pyrazol-5-yl)isothiazolo[4,5-b]pyridin-5-yl)morpholine] showed an IC50 of 26 nM. Regarding `Cc1nc(-c2ccn[nH]2)n2nc(N3CC4CCC(C3)O4)cc(-c3ccnn3C)c12` [Example 65, 3-[5-methyl-4-(1-methyl-1H-pyrazol-5-yl)-7-(1H-pyrazol-5-yl)imidazo [1,5-b]pyridazin-2-yl]-8-oxa-3-azabicyclo[3.2.1]octane], inhibition was half-maximal at 55.2 nM (IC50). For the molecule `Cc1cc(-c2nsc3c(C(C)(C)CO)cc(N4CCOC[C@H]4C)nc23)[nH]n1` [Example 97, (R)-2-methyl-2-(3-(3-methyl-1H-pyrazol-5-yl)-5-(3-methylmorpholino)isothiazolo[4,5-b]pyridin-7-yl)propan-1-ol], the IC50 came to 10 nM.

On to `Cc1nnn(C)c1-c1cc(N2CCOC[C@H]2C)nn2c(-c3ccn[nH]3)nc(C)c12` [Example 45, (3R)-4-[4-(dimethyl-1H-1,2,3-triazol-5-yl)-5-methyl-7-(1H-pyrazol-5-yl)imidazo[1,5-b]pyridazin-2-yl]-3-methylmorpholine], for which the midpoint of inhibition, the IC50, lay at 81.7 nM.
